Publication PMC11111408, “Concurrent inhibition of oncogenic and wild-type RAS-GTP for cancer therapy” (Nature, 2024)
Several values for one entry are separate records, joined by “and”; a condition that tells them apart may be missing. Identical values can stand only once.

Experiments:
GMPPNP–KRAS = target: T1, GMPPNP–KRAS (Homo sapiens, UniProt P01116, G12C); experiment: SPR binding of RMC-7977 to KRAS in the absence of CYPA; settings: compound alone without CYPA
T1 construct: His6-TEV (N); made in house; host or cells: E. coli BL21(DE3)

[1] = tested on: adagrasib-resistant NCI-H358 cells with secondary NRAS^Q61K mutation; experiment: Proliferation (CTG) and western blots of parental and adagrasib-resistant NCI-H358 (NRAS^Q61K); assay type: cell-based, human; settings: NCI-H358 clone with concurrent NRAS^Q61K mutation
NRAS WT = NRAS WT (Homo sapiens, UniProt P01111+P62937); experiment: RAS binding affinity of compound-bound CYPA (Kd2), SPR; settings: steady state SPR, (95% CI)
[2] = Body weight and tolerability of tumour bearing mice; settings: for % Body Weight Change: 10 mg/kg po qd, 10 mg/kg
Experimental: All datapoints shown, n = 3 per dose and timepoint.
Female BALB/c nude mice, NOD SCID and NSG mice 6-8 weeks old from Beijing Vital River/VR Laboratory Animal Co., LTD, Beijing AniKeeper Biotech Co., Ltd., Shanghai Sino-British SIPPR/BK Laboratory Animal Co., LTD and The Jackson Laboratory were used. Animals were housed in polycarbonate cages, in an environmentally monitored, well ventilated room maintained at a constant temperature of 20-26°C and relative humidity of 40-80%. Fluorescent lighting provided illumination approximately 12 hours per day. Each mouse was inoculated at the right flank with tumor cells (2x10^6-1x10^7) in 100-200 µL of media/PBS supplemented with Matrigel (1:1). Treatments were started when the average tumor size reached 100-250 mm^3. […] Mice on studies were weighed and tumor measurements collected twice weekly. […] For efficacy study, Animals were assigned to study groups using stratified randomization based upon their tumor volumes (n=3-10/group). […] Animals were treated for 28 days (or up to 110 for selected models) or an earlier time if tumor burden reached humane endpoint. […] Body weights were collected twice a week during the study.

KRAS^G12R = KRAS^G12R (Homo sapiens, UniProt P01116+P62937, G12R); experiment: RAS binding affinity of compound-bound CYPA (Kd2), SPR; design: made in house; host or cells: BL21(DE3) Escherichia coli; settings: steady state SPR, (95% CI)
NRAS^Q61L = NRAS^Q61L (Homo sapiens, UniProt P01111+P62937, Q61L); experiment: as above; settings: steady state SPR, (95% CI)
A375 cells = experiment: Cell proliferation (CTG); assay type: cell-based, human
Experimental: Alternatively, cells were seeded in round-bottom ultra-low attachment 96-well plates, centrifuged at 1,000 rpm for 10 min to pellet the cells, and incubated overnight or up to 72 h to allow for 3D spheroid formation. […] Cell viability was determined by CellTiter-Glo 2.0 reagent (2D CTG) (Promega, G9243) or 3D CellTiter-Glo reagent (3D CTG) (Promega, G9683) according to the manufacturer’s protocols. Luminescence was detected using a SpectraMax M5 Plate Reader (Molecular Devices) of Perkin Elmer Enspire. Luminescence signal was normalized to vehicle-treated wells (normalized signal (%) = (luminescence (treated)/mean luminescence (vehicle)) × 100%). […] Data were plotted as log [inhibitor (M)], and a four-parameter sigmoidal concentration response model was fitted to the data to calculate EC50. […] Pa16C MEK1 mutant cells were evaluated by live-cell counting using Calcein AM and a SpectraMax i3X multi-mode detection platform (Molecular Devices). Growth percentages were calculated by normalizing the treated cell counts to their respective untreated cell counts.

[3] = tested on: NCI-H358 and MIA PaCa-2 cells expressing RTK constructs; experiment: pERK (MSD) in NCI-H358 and MIA PaCa-2 cells expressing exogenous RTK or RTK fusion constructs; assay type: cell-based, human

CCn1c(-c2cc(N3CCN(C4CC4)CC3)cnc2[C@H](C)OC)c2c3cc(ccc31)-c1csc(n1)C[C@H](NC(=O)[C@H]1[C@@H]3COC[C@@H]31)C(=O)N1CCC[C@H](N1)C(=O)OCC(C)(C)C2 [RMC-7977]
binding to GMPPNP–KRAS (GMPPNP–KRAS): neither RMC-7977 nor CYPA alone exhibited any measurable binding
RAS signalling and growth of adagrasib-resistant clone [1]: inhibited RAS signalling and growth
Kd (NRAS WT): 0.101 µM
% Body Weight Change ([2]; NCI-H441 tumor bearing BALB/c nude mice, day 4, individual animals): -4.55% and -0.24% and 1.44% and 1.89% and -1.08% and 0.22% and -2.41% and 1.83%
% Body Weight Change ([2]; NCI-H441 tumor bearing BALB/c nude mice, day 7, individual animals): -9.19% and -1.70% and 0.68% and 1.75% and -4.40% and -1.88% and -16.62% and -2.26%
% Body Weight Change ([2]; NCI-H441 tumor bearing BALB/c nude mice, day 11, individual animals): -4.55% and -4.86% and 0.27% and 1.46% and -4.26% and -1.16% and -0.43% and 0.65%
% Body Weight Change ([2]; NCI-H441 tumor bearing BALB/c nude mice, day 14, individual animals): -3.50% and -2.87% and 1.04% and 3.87% and -4.31% and -0.18% and -2.76% and -1.00%
% Body Weight Change ([2]; NCI-H441 tumor bearing BALB/c nude mice, day 18, individual animals): -0.17% and 7.78% and -13.00% and 19.16% and -2.62% and 1.70% and -3.06% and 3.09%
% Body Weight Change ([2]; NCI-H441 tumor bearing BALB/c nude mice, day 21, individual animals): -1.14% and -0.19% and 3.16% and 1.56% and -3.51% and 3.31% and -2.50% and 1.35%
% Body Weight Change ([2]; NCI-H441 tumor bearing BALB/c nude mice, day 25, individual animals): -5.65% and 1.02% and 4.20% and 4.72% and -0.28% and 1.43% and -6.63% and 1.91%
% Body Weight Change ([2]; NCI-H441 tumor bearing BALB/c nude mice, day 28, individual animals): -1.90% and 1.90% and 4.11% and 4.06% and 0.28% and 2.82% and -8.01% and 4.78%
% Body Weight Change ([2]; PDAC G12D tumor bearing BALB/c nude mice, day 3, individual animals): -4.17%
% Body Weight Change ([2]; PDAC G12D tumor bearing BALB/c nude mice, day 7, individual animals): -4.17%
% Body Weight Change ([2]; PDAC G12D tumor bearing BALB/c nude mice, day 14, individual animals): -8.33%
% Body Weight Change ([2]; PDAC G12D tumor bearing BALB/c nude mice, day 17, individual animals): -8.33%
% Body Weight Change ([2]; PDAC G12D tumor bearing BALB/c nude mice, day 21, individual animals): -8.00% and 0.00%
% Body Weight Change ([2]; PDAC G12D tumor bearing BALB/c nude mice, day 24, individual animals): -8.00%
% Body Weight Change ([2]; PDAC G12D tumor bearing BALB/c nude mice, day 28, individual animals): 4.00%
effect on body weights ([2]; all 15 KRAS^G12X xenograft models, 10 mg kg^−1): minimal effect on body weights
tolerability ([2]; repeated daily administration at 10 mg kg^−1, NCI-H441 model): well tolerated
Kd (KRAS^G12R): 0.272 µM
Kd (NRAS^Q61L): 0.24 µM
inhibition of proliferation (A375 cells; A375, BRAF^V600E, RAS-independent): No inhibition
EC50 (A375 cells; Homo sapiens, A-375, A375, CTG, (95% CI)): 8.83 µM
pERK inhibition in MiaPaCa2 RTK fusion overexpression cells treated with RMC-7977 ([3]; CCDC6-RET, RMC-7977 0.046 nM): 114.81 and 112.21 and 120.39
pERK inhibition in MiaPaCa2 RTK fusion overexpression cells treated with RMC-7977 ([3]; CCDC6-RET, RMC-7977 0.412 nM): 62.51 and 66.85 and 62.20 and 56.39
pERK inhibition in MiaPaCa2 RTK fusion overexpression cells treated with RMC-7977 ([3]; CCDC6-RET, RMC-7977 1.235 nM): 40.55 and 38.10 and 39.55 and 34.25
pERK inhibition in MiaPaCa2 RTK fusion overexpression cells treated with RMC-7977 ([3]; CCDC6-RET, RMC-7977 3.704 nM): 15.40 and 16.48 and 16.06 and 15.78
pERK inhibition in MiaPaCa2 RTK fusion overexpression cells treated with RMC-7977 ([3]; CCDC6-RET, RMC-7977 11.111 nM): 5.99 and 6.04 and 6.20 and 6.24
pERK inhibition in MiaPaCa2 RTK fusion overexpression cells treated with RMC-7977 ([3]; CCDC6-RET, RMC-7977 33.333 nM): 4.07 and 4.10 and 4.14 and 4.22
pERK inhibition in MiaPaCa2 RTK fusion overexpression cells treated with RMC-7977 ([3]; CCDC6-RET, RMC-7977 100.000 nM): 3.63 and 3.37 and 3.48 and 3.54
pERK in NCI-H358 RTK overexpression cells treated with RMC-7977 ([3]; EGFR WT, RMC-7977 0.0152 nM): 104.75 and 140.08
pERK inhibition in H358 RTK overexpression cells ([3]; EGFR WT, RMC-7977 0.0152 nM): 88.81 and 100.67
pERK in NCI-H358 RTK overexpression cells treated with RMC-7977 ([3]; EGFR WT, RMC-7977 0.0457 nM): 101.07 and 109.46
pERK inhibition in H358 RTK overexpression cells ([3]; EGFR WT, RMC-7977 0.0457 nM): 80.53 and 78.65
pERK in NCI-H358 RTK overexpression cells treated with RMC-7977 ([3]; EGFR WT, RMC-7977 0.41 nM): 70.68 and 81.35
pERK inhibition in H358 RTK overexpression cells ([3]; EGFR WT, RMC-7977 0.41 nM): 58.96 and 57.93
pERK inhibition in H358 RTK overexpression cells ([3]; EGFR WT, RMC-7977 3.70 nM): 13.20 and 12.44
pERK inhibition in H358 RTK overexpression cells ([3]; EGFR WT, RMC-7977 11.11 nM): 5.97 and 5.02
pERK in NCI-H358 RTK overexpression cells treated with RMC-7977 ([3]; EGFR WT, RMC-7977 33.33 nM): 1.98 and 1.90
pERK inhibition in H358 RTK overexpression cells ([3]; EGFR WT, RMC-7977 33.33 nM): 3.17 and 3.29
pERK in NCI-H358 RTK overexpression cells treated with RMC-7977 ([3]; EGFR WT, RMC-7977 100.00 nM): 1.18 and 1.21
pERK inhibition in H358 RTK overexpression cells ([3]; EGFR WT, RMC-7977 100.00 nM): 3.04 and 2.54
pERK in NCI-H358 RTK overexpression cells treated with RMC-7977 ([3]; EGFR WT, RMC-7977 300.00 nM): 1.43 and 1.37
pERK inhibition in H358 RTK overexpression cells ([3]; EGFR WT, RMC-7977 300.00 nM): 2.79 and 3.22
pERK inhibition in MiaPaCa2 RTK fusion overexpression cells treated with RMC-7977 ([3]; EML4-ALK, RMC-7977 0.412 nM): 51.66 and 62.71 and 69.43
pERK inhibition in MiaPaCa2 RTK fusion overexpression cells treated with RMC-7977 ([3]; EML4-ALK, RMC-7977 1.235 nM): 29.82 and 34.96 and 36.22
pERK inhibition in MiaPaCa2 RTK fusion overexpression cells treated with RMC-7977 ([3]; EML4-ALK, RMC-7977 3.704 nM): 13.53 and 15.19 and 15.47
pERK inhibition in MiaPaCa2 RTK fusion overexpression cells treated with RMC-7977 ([3]; EML4-ALK, RMC-7977 11.111 nM): 5.91 and 5.92 and 5.79
pERK inhibition in MiaPaCa2 RTK fusion overexpression cells treated with RMC-7977 ([3]; EML4-ALK, RMC-7977 100.000 nM): 3.46 and 3.15 and 3.05
pERK in NCI-H358 RTK overexpression cells treated with RMC-7977 ([3]; FGFR2, RMC-7977 0.0152 nM): 105.65
pERK inhibition in H358 RTK overexpression cells ([3]; FGFR2, RMC-7977 0.0152 nM): 106.96
pERK in NCI-H358 RTK overexpression cells treated with RMC-7977 ([3]; FGFR2, RMC-7977 0.0457 nM): 88.22
pERK inhibition in H358 RTK overexpression cells ([3]; FGFR2, RMC-7977 0.0457 nM): 111.13
pERK in NCI-H358 RTK overexpression cells treated with RMC-7977 ([3]; FGFR2, RMC-7977 0.41 nM): 48.78
pERK inhibition in H358 RTK overexpression cells ([3]; FGFR2, RMC-7977 0.41 nM): 65.30
pERK inhibition in H358 RTK overexpression cells ([3]; FGFR2, RMC-7977 3.70 nM): 17.67
pERK inhibition in H358 RTK overexpression cells ([3]; FGFR2, RMC-7977 11.11 nM): 6.99
